Values quoted from earlier work in patent publication US20050169894A1, “Compositions and methods for ex vivo preservation of blood vessels for vascular grafts using inhibitors of Type III and/or Type IV phosphodiesterases” (priority 2003, published 2005).

Assays:
[1] = tested on: endothelial cells; settings: stated as known; about 4 mM
[2] = tested on: Type IV phosphodiesterase; settings: at high concentrations; Lugnier and Komas, 1993
[3] = molecular target: Type V phosphodiesterase (Homo sapiens, UniProt O76074); settings: at high concentrations; Lugnier and Komas, 1993

| inhibition of Type IV phosphodiesterase activity [2] | inhibition of Type V phosphodiesterase activity [3] | Compound | concentration toxic to endothelial cells [1] |
| --- | --- | --- | --- |
| – | – | CCCC(=O)Nc1ncnc2c1ncn2[C@@H]1O[C@@H]2COP(=O)(O)O[C@H]2[C@H]1OC(=O)CCC [db cAMP, dibutyryl adenosine 3′,5′-cyclic monophosphate] | higher than 4 mM |
| inhibits | inhibits | Cc1[nH]c(=O)c(C#N)cc1-c1ccncc1 [milrinone, Milrinone] | – |
